# Source: patent publication EP3168210A1, “CRYSTALLINE FORMS OF ENTINOSTAT” (SANDOZ AG, priority 2015, dated 2017)
# How the values were obtained:
# [1] = Water solubility of crystal forms measured by HPLC; format: physicochemical; settings: 25°C
# Experimental: The water solubilities at 25°C of different crystal forms of Entinostat have been measured by HPLC and are set out in the following table: […]
# [2] = Compression study (hydraulic press, polymorphic form after compression); format: physicochemical; settings: about 100 mg powder compressed to 5 tonnes/cm^2, held for 1h; slight crystallinity decrease
# Experimental: The compression study was performed using a Specac hydraulic press. A sample powder (approx. 100mg) is loaded into a metal die (ring shaped metal holder). A snugly fitted billet (a cylinder-shaped metal rod) is then placed into the die, on top of the powder sample. The die and billet assembly is then placed into the hydraulic press and compressed to a pressure of 5 tonnes/cm^2 and held under that pressure for 1h. The billet is then removed and the disc extracted from the die.
Water solubility [1],polymorphic form after compression [2],Structure (SMILES)
48 µg/mL,maintain the same polymorphic form,"Nc1ccccc1NC(=O)c1ccc(CNC(=O)OCc2cccnc2)cc1 [Form A, (pyridin-3-yl)methyl 4-(2-aminophenylcarbamoyl)benzylcarbamate]"
28 µg/mL,maintain the same polymorphic form,"Nc1ccccc1NC(=O)c1ccc(CNC(=O)OCc2cccnc2)cc1 [Form B, (pyridin-3-yl)methyl 4-(2-aminophenylcarbamoyl)benzylcarbamate]"
130 µg/mL,maintain the same polymorphic form,"Nc1ccccc1NC(=O)c1ccc(CNC(=O)OCc2cccnc2)cc1 [Form D, (pyridin-3-yl)methyl 4-(2-aminophenylcarbamoyl)benzylcarbamate]"
